We go through one compound from patent publication US20260176274A1, “ENAMINE N-OXIDE TOOLS FOR TARGET IDENTIFICATION APPLICATIONS” (DANA-FARBER CANCER INSTITUTE, INC., priority 2022, published 2026).

The target in one assay is T1, BRD4 (Homo sapiens, UniProt O60885).
T1 construct: In Cellulo BARS Labeling of Endogenous Target Proteins; endogenous in cells; host or cells: HEK293T
Kind of assay: In cellulo BARS labeling in live HEK293T cells, immunoblot against BRD4. The assay is classed as cell-based. Conditions: probe 5 μM, B2(OH)4 100 μM 10 min. How it is done:
HEK293T cells were cultured in DMEM containing 10% FBS (Sigma), 100 units/mL penicillin, and 0.1 mg/mL streptomycin (Sigma) in a humidified chamber at 37° C. under an ambient atmosphere with 5% CO2. After culturing to >80% confluency in 150 mm plates, the plates were removed from the incubator, the media was aspirated, and the cells were trypsinized at 37° C. with 0.25% trypsin, 0.1% EDTA in HBSS (3 mL). After 3 min, complete growth medium (7 mL) was added to the detached cells, and the cell suspension was transferred to a 50 mL centrifuge tube. Cells were pelleted (400×g, 4 min, 23° C.) and washed with 2×20 mL PBS, pH 7.4. At this point, the density of the cell suspension in PBS was determined by the trypan blue exclusion method. The cells were pelleted once more, and the volume of PBS was adjusted to produce a cell suspension with a final density of 2×10^7 cells/mL. The cell suspension was aliquoted into 2 mL microcentrifuge tubes (3×1 mL, 2×10^7 cells each). […] Competitor 21′ (50 μM final concentration, from a 500 mM stock in DMSO) was also added to the third tube. The samples were incubated at 37° C. with end-over-end rotation. After 2 h of incubation, the cells were pelleted (400×g, 4 min, 23° C.) and washed once with PBS, pH 7.4.
(In general: Immunoblotting shows a protein as a band on a membrane.)

Assay [1] has as its target T2, BRD2/3/4 (Homo sapiens, UniProt O60885).
T2 construct: In Vitro BARS Labeling of Endogenous Target Proteins in Cell Lysate; endogenous in cells; host or cells: HEK293T lysate
The assay is described as follows: Pulldown-MS chemoproteomics in HEK293T cell lysate, (+)-JQ1 probe. The assay is classed as binding. The note with it: filter 3 quantified peptides in 3 replicates. How it is done: (§1) The same procedure as the “Streptavidin pull-down” was followed up to the wash steps. After the final wash, the supernatant was completely removed. Formamide elution buffer (95% v/v formamide, 5% v/v 100 mM sodium acetate, pH 10, 50 μL) was then added to the beads with gentle mixing. The beads were heated to 95° C. for 10 min, pelleted, and the supernatant was removed while hot and then allowed to cool to rt. The formamide elution was repeated a second time for a combined eluate volume of approximately 100 μL. The eluate samples were then submitted to the Dana-Farber TPD Core facility for further processing. […]
(§2) Peptides were analyzed on an Ultimate™ 3000 RSLCnano system coupled to a Tribrid series mass spectrometer (Thermo Fisher Scientific™). […]
(§3) RAW file processing, false discovery rate filtering (<1%), and protein roll-up and MS1 intensity-based label-free quantification (Minora algorithm) were achieved using Proteome Discoverer 2.5 (Thermo Fisher Scientific™). […] Peptides were quantified by precursor ion abundance and summed across proteins.
(§4) Proteins were filtered to include those with three or more unique peptides quantified across four replicate treatments, unless otherwise stated. […] All peptides of target proteins quantified at the single peptide level were manually inspected to ensure accuracy in quantification.

Assay [2] deals with BRD2/3/4. The description is as above. Conditions: filter 1 quantified peptide in 3 replicates; against competitor or enantiomer controls. The assay is classed as binding, human. Here is the method:
as §1, §2, §3, §4

As to `C#CCCC[N+](C)([O-])/C(Br)=C/C(Cl)CCCC(=O)NCCCCCCNC(=O)C[C@@H]1N=C(c2ccc(Cl)cc2)c2c(sc(C)c2C)-n2c(C)nnc21` (stereo partly drawn) [22′a, (Z)-1-Bromo-3-chloro-7-((6-(2-((S)-4-(4-chlorophenyl)-2,3,9-trimethyl-6H-thieno[3,2-f][1,2,4]triazolo[4,3-al][1,4]diazepin-6-yl)acetamido)hexyl)amino)-N-methyl-7-oxo-N-(pent-4-yn-1-yl)hept-1-en-1-amine oxide], on BRD4, the “target identification in live HEK293T cells (BRD4)” value was “successfully executed”. Moreover, the chemoproteomics protein identified result on BRD2/3/4 [1] was “BRD4 was identified”. In the assay on BRD2/3/4 [2], the chemoproteomics hits result is “BRD2/3/4 were identified as hits”.
